The text below walks through data of ChEMBL document CHEMBL5634128, “Development of chalcone-like derivatives and their biological and mechanistic investigations as novel influenza nuclear export inhibitors” (Eur J Med Chem, 2023).

Data set [1] concerns Influenza A virus. Description: Anti-influenza activity against Influenza A virus A/Goose/Guangdong/SH7/2013 (H5N1) infected in chicken embryo fibroblast at MOI 1 assessed as reduction in NP expression in nucleus at 10 uM measured after 10 hr post infection by Western blot analysis. Type of data set: functional, organism-based. (In general: In western blotting, separated proteins are transferred to a membrane and probed.)

Data set [2] is described as follows: Binding affinity to influenza A virus M1 assessed as dissociation constant by SPR analysis. For orientation: Surface plasmon resonance follows binding to a sensor surface in real time, without labels.
Data set [3] concerns the target Exportin-1 (Homo sapiens) (UniProt O14980). The data set can be described thus: Inhibition of CRM1-mediated nuclear export in human A549 cells assessed as distribution of GFP-tagged AID in nucleus at 20 uM administered for 12 hrs and measured after 24 hrs by fluorescence microscopy analysis. Format: cell-based. The note with it: time 36.0 hrs.
Data set [4] is described as follows: Binding affinity to influenza A virus NS2 assessed as dissociation constant by SPR analysis.
Data set [5] relates to Influenza A virus. The data set can be described thus: Anti-influenza activity against Influenza A virus H5N8 infected in chicken embryo fibroblast assessed as reduction in viral growth. Type of data set: functional, organism-based.
Data set [6] relates to Influenza A virus. Description: Anti-influenza activity against Influenza A virus B/Yamagata infected in chicken embryo fibroblast assessed as reduction in viral growth. Type of data set: functional, organism-based.
The next data set addresses Nucleoprotein (Influenza A virus (strain A/Wilson-Smith/1933 H1N1), UniProt P15682). Description: Binding affinity to influenza A virus Nucleoprotein assessed as dissociation constant by SPR analysis.
Data set [7] is described as follows: Cytotoxicity against chicken embryo fibroblast cells assessed as reduction in cell growth by CCK-8. Format: toxicity, cell-based, Gallus gallus.
For data set [8], the target named is Single-stranded DNA cytosine deaminase (Homo sapiens) (UniProt Q9GZX7). Description: Induction of GFP-tagged AID degradation in human A549 cells at 20 uM. Format: cell-based.
Chain of Single-stranded DNA cytosine deaminase (Homo sapiens) (Q9GZX7 whole entry): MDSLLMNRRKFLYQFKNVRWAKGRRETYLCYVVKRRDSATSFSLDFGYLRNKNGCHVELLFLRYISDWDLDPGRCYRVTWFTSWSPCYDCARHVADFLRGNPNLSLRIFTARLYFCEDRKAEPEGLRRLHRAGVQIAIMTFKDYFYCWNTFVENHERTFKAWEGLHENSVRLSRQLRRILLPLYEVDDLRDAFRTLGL
Data set [9] has as its system Influenza A virus. The data set can be described thus: Anti-influenza activity against Influenza A virus A/PR/8/34 infected in chicken embryo fibroblast assessed as reduction in viral growth. Format: functional, organism-based. The note with it: A/PR/8/34, Fibroblast.
The subject of data set [10] is Influenza A virus. The data set can be described thus: Anti-influenza activity against Influenza A virus A/Goose/Guangdong/SH7/2013 (H5N1) infected in chicken embryo fibroblast assessed as inhibition of virus-induced cytopathic effect. Type of data set: functional. On the technique in general: Cytopathic effects are the visible damage that an infection or toxin causes in cultured cells.

For data set [11], the system named is Influenza A virus. The data set can be described thus: Anti-influenza activity against Influenza A virus A/Brisbane/10/2007 infected in chicken embryo fibroblast assessed as reduction in viral growth. Type of data set: functional, organism-based. Particulars: A/Brisbane/10/2007, Fibroblast.
Data set [12] has as its system Influenza A virus. The data set can be described thus: Anti-influenza activity against Influenza A virus A/Goose/Guangdong/SH7/2013 (H5N1) infected in chicken embryo fibroblast at MOI 1 assessed as distribution of NP in nucleus at 10 uM measured after 10 hr post infection by DAPI staining based assay. Type of data set: functional, organism-based.
Data set [13] in a line: (§1) Cytotoxicity against chicken embryo fibroblast cells assessed as reduction in cell growth at 50 uM by CCK-8 assay relative to control. Type of data set: toxicity, cell-based, Gallus gallus. Set-up: Activity: scale not given: the % may be the effect or the level left. The note with it: chicken embryo fibroblast cells, read-out: Activity.
For data set [14], the system named is Influenza A virus. The data set can be described thus: Anti-influenza activity against Influenza A virus B/Victoria infected in chicken embryo fibroblast assessed as reduction in viral growth. Type of data set: functional, organism-based.
For data set [15], the system named is Influenza A virus. Description: Anti-influenza activity against Influenza A virus pdm09 infected in chicken embryo fibroblast assessed as reduction in viral growth. Format: functional, organism-based.
The test system of data set [16] is Influenza A virus. The data set can be described thus: Anti-influenza activity against Influenza A virus A/Goose/Guangdong/SH7/2013 (H5N1) infected in chicken embryo fibroblast at MOI 1 assessed as decrease in ratio of cytoplasmic to nuclear NP level at 10 uM measured after 10 hr post infection by Western blot analysis. Format: functional, organism-based.
Data set [17] deals with Influenza A virus. Description: Anti-influenza activity against Influenza A virus A/Goose/Guangdong/SH7/2013 (H5N1) infected in chicken embryo fibroblast at MOI 1 assessed as reduction in NP expression in cytoplasm at 10 uM measured after 10 hr post infection by Western blot analysis. Type of data set: functional, organism-based.
The subject of data set [18] is Influenza A virus. The data set can be described thus: Anti-influenza activity against Influenza A virus H5N1 infected in chicken embryo fibroblast assessed as reduction in viral growth. Type of data set: functional, organism-based.
For data set [19], the target named is Exportin-1 (Homo sapiens) (UniProt O14980). Description: Inhibition of CRM1-mediated nuclear export in human A549 cells assessed as distribution of GFP-tagged AID in cytoplasm at 20 uM administered for 12 hrs and measured after 24 hrs by fluorescence microscopy analysis. Type of data set: cell-based.
Chain of Exportin-1 (Homo sapiens) (O14980 whole entry): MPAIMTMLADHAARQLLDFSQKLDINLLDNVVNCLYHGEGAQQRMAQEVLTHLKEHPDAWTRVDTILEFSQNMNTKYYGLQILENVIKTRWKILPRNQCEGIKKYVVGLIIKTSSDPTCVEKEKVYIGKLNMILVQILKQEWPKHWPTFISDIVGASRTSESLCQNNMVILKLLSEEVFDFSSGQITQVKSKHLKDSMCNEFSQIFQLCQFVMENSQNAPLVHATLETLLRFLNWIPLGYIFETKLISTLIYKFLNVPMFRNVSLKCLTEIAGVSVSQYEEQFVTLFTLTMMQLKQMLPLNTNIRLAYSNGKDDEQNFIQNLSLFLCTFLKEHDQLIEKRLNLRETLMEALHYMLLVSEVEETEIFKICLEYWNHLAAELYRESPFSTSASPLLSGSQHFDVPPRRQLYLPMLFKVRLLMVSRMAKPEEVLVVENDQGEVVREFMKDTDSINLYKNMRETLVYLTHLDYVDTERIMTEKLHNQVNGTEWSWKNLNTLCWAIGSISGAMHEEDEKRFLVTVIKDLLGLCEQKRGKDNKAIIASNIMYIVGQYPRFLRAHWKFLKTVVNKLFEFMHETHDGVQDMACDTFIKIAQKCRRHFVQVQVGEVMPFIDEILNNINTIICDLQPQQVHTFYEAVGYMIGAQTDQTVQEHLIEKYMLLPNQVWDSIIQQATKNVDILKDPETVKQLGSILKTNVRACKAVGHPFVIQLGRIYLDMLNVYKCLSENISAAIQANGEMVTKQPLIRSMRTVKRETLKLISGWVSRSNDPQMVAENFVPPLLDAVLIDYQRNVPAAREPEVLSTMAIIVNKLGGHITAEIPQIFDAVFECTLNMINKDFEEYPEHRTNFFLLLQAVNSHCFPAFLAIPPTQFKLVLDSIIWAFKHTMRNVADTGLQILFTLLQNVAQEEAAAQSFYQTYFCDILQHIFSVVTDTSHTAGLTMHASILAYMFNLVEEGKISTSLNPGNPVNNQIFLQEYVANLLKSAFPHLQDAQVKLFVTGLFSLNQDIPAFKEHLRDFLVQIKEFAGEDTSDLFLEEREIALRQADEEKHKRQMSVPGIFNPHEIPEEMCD
In the next data set the test system is Fibroblast. The description is as §1. Format: toxicity, cell-based, Gallus gallus. Set-up: Activity: scale not given: the % may be the effect or the level left. The note with it: fibroblast, 50 µM.

Each structure is given as a SMILES string. Values joined by “and” are separate entries in the source; they are usually repeats but may differ in a detail not shown here. Identical values can stand only once. Active and inactive are the calls of the source. The calls are words filed in the database; no cut-off is given here.

Chain of Nucleoprotein (P15682 whole entry): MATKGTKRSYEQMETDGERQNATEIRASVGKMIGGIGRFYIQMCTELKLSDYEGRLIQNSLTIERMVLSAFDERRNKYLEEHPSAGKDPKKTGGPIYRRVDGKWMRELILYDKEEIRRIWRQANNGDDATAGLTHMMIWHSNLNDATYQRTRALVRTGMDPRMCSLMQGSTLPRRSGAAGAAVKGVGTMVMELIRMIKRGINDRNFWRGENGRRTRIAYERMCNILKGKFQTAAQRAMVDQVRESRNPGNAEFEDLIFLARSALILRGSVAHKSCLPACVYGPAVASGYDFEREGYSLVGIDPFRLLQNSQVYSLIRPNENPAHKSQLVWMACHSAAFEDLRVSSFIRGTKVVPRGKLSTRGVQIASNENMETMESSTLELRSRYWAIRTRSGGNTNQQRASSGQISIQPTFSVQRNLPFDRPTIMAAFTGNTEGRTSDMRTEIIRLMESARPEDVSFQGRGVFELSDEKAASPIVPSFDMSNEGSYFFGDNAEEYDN

The Kd is the equilibrium constant for the complex coming apart. As usually defined, the EC50 is the concentration giving half of the maximal effect. A word on the CC50: it is the concentration that lowers cell viability or growth by half. For the compound `COc1cccc(OC)c1/C=C/C(=O)/C=C/c1ccc(N2CCOCC2)cc1`, the outcome (in the data set with Influenza A virus [1]; in data set [8]; in the data set with Influenza A virus [12]; in the data set with Influenza A virus [16]; in the data set on Influenza A virus [17]) was Active. Besides, the Kd entry was “Not Active” in [2], “Not Active” in [4] and 239 nM at Nucleoprotein. Moreover, the inhibition result in [3] and in data set [19] was “inactive” each time. For the same compound, the half-maximal effective concentration (EC50) in the data set with Influenza A virus [5] was found to be 9.6 µM; in the data set with Influenza A virus [6], 4.82 µM; with Influenza A virus [9] it was 7.31 µM; with Influenza A virus [11] it was 3.69 µM; in the data set with Influenza A virus [14] it was 3.13 µM; with Influenza A virus [15] it was 4.56 µM. For the same compound, the EC50 in the data set on Influenza A virus [18] worked out at 14.9 µM. In addition, the CC50 in data set [7] is above 100 µM. In addition, the “inhibition (INH)” value in the data set with Influenza A virus [10] was 96.62%. For the same compound, in [13], the percent cell viability relative to control at 50 µM worked out at 102%.
As to `COc1cccc(OC)c1/C=C/C(=O)/C=C/c1ccc(-c2ccncc2)cc1`, in the data set with Influenza A virus [10], the “inhibition (INH)” value was found to be 26.05%. Besides, the Activity in the data set with Fibroblast is 153.71%.
Consider `CCC(CC)O[C@@H]1C=C(C(=O)O)C[C@H](N)[C@H]1NC(C)=O` [OSELTAMIVIR CARBOXYLATE], for which the concentration for a half-maximal effect (EC50) with Influenza A virus [5] is 6.49 µM; in the data set on Influenza A virus [6], 0.98 µM; with Influenza A virus [9], 3.08 µM; in the data set with Influenza A virus [11] it was 1.08 µM; with Influenza A virus [14], 2.43 µM; with Influenza A virus [15], above 100 µM. Besides, in the data set on Influenza A virus [18], the half-maximal effective concentration (EC50) was found to be 5.7 µM. Besides, the CC50 in [7] was above 100 µM. In addition, the “inhibition (INH)” value with Influenza A virus [10] was 98.5% and 97.3%. Also, the percent cell viability relative to control at 50 µM in data set [13] worked out at 100%. The Activity in the data set on Fibroblast came to 105.08%.
On to `CCOc1ccc(/C=C/C(=O)/C=C/c2c(OC)cccc2OC)cc1`, for which the result (with Influenza A virus [1]; in data set [8]; with Influenza A virus [12]; in the data set with Influenza A virus [16]; in the data set on Influenza A virus [17]) was Active. In addition, the dissociation constant (Kd) result was “Not Active” in data set [2], “Not Active” in data set [4] and 239 nM on Nucleoprotein. Also, the inhibition result in data set [3] and in data set [19] was “inactive” throughout. The concentration for a half-maximal effect (EC50) worked out at 9.6 µM with Influenza A virus [5]; 4.82 µM in the data set with Influenza A virus [6]; 7.31 µM in the data set on Influenza A virus [9]; 3.69 µM in the data set on Influenza A virus [11]; 3.13 µM in the data set with Influenza A virus [14]; 4.56 µM in the data set with Influenza A virus [15]. Moreover, the EC50 with Influenza A virus [18] was determined as 14.9 µM. Also, the half-maximal cytotoxic concentration (CC50) in [7] was above 100 µM. In the data set with Influenza A virus [10], the “inhibition (INH)” value is given as 51.33%. Also, the percent cell viability relative to control at 50 µM in data set [13] is 117%.
